Laboratory results: patent US20240382629A1, “HETEROBIVALENT AND HOMOBIVALENT AGENTS TARGETING FIBROBLAST ACTIVATION PROTEIN ALPHA AND/OR PROSTATE-SPECIFIC MEMBRANE ANTIGEN” (The Johns Hopkins University, priority 2021, published 2024)

Test system: U87 tumor
Experiment: PET imaging and tissue biodistribution in U87 tumor-bearing mice
Format: in vivo, mouse
Conditions: for Biodistribution: Bladder / Biodistribution: Blood / Biodistribution: Bone / Biodistribution: Fat / Biodistribution: Heart / Biodistribution: Kidney / Biodistribution: Lac.gl / Biodistribution: Liver / Biodistribution: Lung / Biodistribution: Muscle / Biodistribution: Pancreas / Biodistribution: Sal.gl / Biodistribution: Sm.in / Biodistribution: Spleen / Biodistribution: Stomach / Biodistribution: Tumor: in %ID/g
Experimental: Cell uptake assays, flow cytometry, and IHC were performed as described previously. Banerjee et al., 2019; Nimmagadda et al., 2018. PET imaging and biodistribution Sequential PET imaging and biodistribution studies were conducted to quantify and validate PET imaging data. Briefly, tumor-bearing mice were administrated approximately 7.4 MBq of radiotracer in 150 μL saline via tail-vein injection. They were randomized into the indicated groups of 3-4 mice before radiotracer injection.
In Experiment 1, bilateral xenografts of U87 (right flank) and PSMA+ PC3 PIP (left flank) tumors were established in male NSG mice (n=3), which underwent imaging followed by biodistribution over 24 h. […] A biodistribution study was further conducted with U87 tumors at 2 h post-injection (n=3) to compare the tissue distribution properties of ^64Cu-FP-L1 and ^64Cu-FAPI-04.

[1] = 1 h, NSG mice, U87 tumor, n=3-4
[2] = 1 h block, 10 nmol FAPI-04, NSG mice, U87 tumor
[3] = 2 h (n = 4), NSG mice, U87 tumor

SMILES: N#C[C@@H]1CCCN1C(=O)CNC(=O)c1ccnc2ccc(OCCCNC(=O)CCc3cn(CCOCCOCCOCCC(=O)N[C@@H](CCCCNC(=O)CN4CCN(CC(=O)O)CCN(CC(=O)O)CC4)C(=O)NCCCCC(=O)N(CCCC[C@H](NC(=O)N[C@@H](CCC(=O)O)C(=O)O)C(=O)O)Cc4ccc(Br)cc4)nn3)cc12 [^64Cu-FP-L1, metal not drawn]
- Biodistribution: Bladder [1]: 2.41 ± 0.62
- Biodistribution: Blood [1]: 10.12 ± 3.23
- Biodistribution: Bone [1]: 4.17 ± 0.13
- Biodistribution: Fat [1]: 0.77 ± 0.12
- Biodistribution: Heart [1]: 3.42 ± 2.73
- Biodistribution: Kidney [1]: 21.58 ± 5.33
- Biodistribution: Lac.gl [1]: 5.47 ± 4.13
- Biodistribution: Liver [1]: 5.35 ± 0.43
- Biodistribution: Lung [1]: 5.32 ± 1.42
- Biodistribution: Muscle [1]: 2.29 ± 0.08
- Biodistribution: Pancreas [1]: 7.17 ± 1.19
- Biodistribution: Sal.gl [1]: 12.01 ± 3.62
- Biodistribution: Sm.in [1]: 4.22 ± 1.78
- Biodistribution: Spleen [1]: 2.20 ± 0.54
- Biodistribution: Stomach [1]: 2.51 ± 0.25
- Biodistribution: Tumor [1]: 12.04 ± 2.39
- Biodistribution: Bladder [2]: 1.22 ± 0.15
- Biodistribution: Blood [2]: 1.38 ± 0.19
- Biodistribution: Bone [2]: 0.72 ± 0.08
- Biodistribution: Fat [2]: 0.31 ± 0.04
- Biodistribution: Heart [2]: 0.94 ± 0.35
- Biodistribution: Kidney [2]: 6.09 ± 0.18
- Biodistribution: Lac.gl [2]: 1.48 ± 0.45
- Biodistribution: Liver [2]: 6.19 ± 1.06
- Biodistribution: Lung [2]: 2.63 ± 0.27
- Biodistribution: Muscle [2]: 0.38 ± 0.05
- Biodistribution: Pancreas [2]: 1.01 ± 0.10
- Biodistribution: Sal.gl [2]: 2.00 ± 0.19
- Biodistribution: Sm.in [2]: 3.00 ± 0.22
- Biodistribution: Spleen [2]: 1.55 ± 0.07
- Biodistribution: Stomach [2]: 1.96 ± 0.07
- Biodistribution: Tumor [2]: 4.37 ± 0.70
- Biodistribution: Bladder [3]: 2.68 ± 0.83
- Biodistribution: Blood [3]: 9.93 ± 2.13
- Biodistribution: Bone [3]: 5.36 ± 1.89
- Biodistribution: Fat [3]: 0.66 ± 0.52
- Biodistribution: Heart [3]: 4.62 ± 0.68
- Biodistribution: Kidney [3]: 26.85 ± 7.39
- Biodistribution: Lac.gl [3]: 8.11 ± 1.24
- Biodistribution: Liver [3]: 6.15 ± 0.65
- Biodistribution: Lung [3]: 5.65 ± 1.54
- Biodistribution: Muscle [3]: 2.10 ± 0.13
- Biodistribution: Pancreas [3]: 5.98 ± 0.58
- Biodistribution: Sal.gl [3]: 8.96 ± 1.47
- Biodistribution: Sm.in [3]: 6.12 ± 1.91
- Biodistribution: Spleen [3]: 2.68 ± 0.62
- Biodistribution: Stomach [3]: 2.19 ± 0.33
- Biodistribution: Tumor [3]: 14.65 ± 3.68
- Tumor uptake, FAP+ U87 tumor (2 h, bilateral U87 / PSMA+ PC3 PIP model): 16.96±5.01 % ID/g
- Uptake in U87 tumor with FAP blockade (2 h, blocking with FAPI-04 (500 nmol/kg)): 2.47±0.82 % ID/g
- Biodistribution: Bladder (2 h Nude mice (n = 4)): 1.80 ± 0.24
- Biodistribution: Blood (2 h Nude mice (n = 4)): 6.50 ± 1.05
- Biodistribution: Bone (2 h Nude mice (n = 4)): 3.51 ± 0.45
- Biodistribution: Fat (2 h Nude mice (n = 4)): 0.86 ± 0.03
- Biodistribution: Heart (2 h Nude mice (n = 4)): 2.77 ± 0.25
- Biodistribution: Kidney (2 h Nude mice (n = 4)): 11.66 ± 0.95
- Biodistribution: Lac.gl (2 h Nude mice (n = 4)): 5.44 ± 0.78
- Biodistribution: Liver (2 h Nude mice (n = 4)): 4.16 ± 0.66
- Biodistribution: Lung (2 h Nude mice (n = 4)): 4.37 ± 0.48
- Biodistribution: Muscle (2 h Nude mice (n = 4)): 1.80 ± 0.26
- Biodistribution: Pancreas (2 h Nude mice (n = 4)): 5.04 ± 0.36
- Biodistribution: Sal.gl (2 h Nude mice (n = 4)): 5.60 ± 0.94
- Biodistribution: Sm.in (2 h Nude mice (n = 4)): 4.33 ± 1.13
- Biodistribution: Spleen (2 h Nude mice (n = 4)): 1.88 ± 0.35
- Biodistribution: Stomach (2 h Nude mice (n = 4)): 2.02 ± 0.22
- Biodistribution: Tumor (2 h Nude mice (n = 4)): 7.25 ± 1.24
- Biodistribution: Bladder (4 h, NSG mice, U87 tumor): 1.72 ± 0.33
- Biodistribution: Blood (4 h, NSG mice, U87 tumor): 3.91 ± 0.73
- Biodistribution: Bone (4 h, NSG mice, U87 tumor): 2.39 ± 0.37
- Biodistribution: Fat (4 h, NSG mice, U87 tumor): 0.53 ± 0.10
- Biodistribution: Heart (4 h, NSG mice, U87 tumor): 2.13 ± 0.17
- Biodistribution: Kidney (4 h, NSG mice, U87 tumor): 16.57 ± 2.68
